The record followed here is US8962660B2 (Bristol-Myers Squibb Company, priority 2013, dated 2015).

The target in the assay is T1, human GPR120 (Homo sapiens, UniProt Q5NUL3).
T1 construct: expressed in transfected cells; host or cells: CHOA12 cells
T1 sequence (Q5NUL3 1-361): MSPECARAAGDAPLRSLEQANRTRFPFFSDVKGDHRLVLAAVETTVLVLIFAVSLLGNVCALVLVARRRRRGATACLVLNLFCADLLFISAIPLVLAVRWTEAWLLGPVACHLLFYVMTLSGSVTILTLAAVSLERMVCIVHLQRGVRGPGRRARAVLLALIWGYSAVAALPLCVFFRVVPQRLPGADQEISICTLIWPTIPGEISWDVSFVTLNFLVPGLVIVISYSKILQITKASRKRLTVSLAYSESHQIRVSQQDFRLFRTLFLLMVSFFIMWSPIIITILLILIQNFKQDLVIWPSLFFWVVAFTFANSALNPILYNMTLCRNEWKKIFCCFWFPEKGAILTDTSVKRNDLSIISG
Description: GPR120 pERK AlphaScreen SureFire assay (human). Format: cell-based. Conditions: CHO cells stably transfected with short form of human GPR120. An excerpt:
GPR120 activity was monitored by measuring phosphorylation of ERK (pERK), since G protein receptors are known to activate the ERK signaling cascade either directly and/or through recruitment of arrestin that serves as a scaffold for downstream signaling events.
GPR120 pERK AlphaScreen SureFire Assay
The human and mouse GPR120-mediated intracellular phosphorylated ERK assays were established using CHOA12 cells stably transfected with the short form of human or mouse GPR120 receptor. Cells were cultured in growth medium consisting of F-12 media (Invitrogen Cat. #11765) with 5% Charcoal/Dextran FBS (Invitrogen Cat. #12676-029), 500 μg/mL GENETICIN® (Life Technologies Cat. #10131-027) and 250 μg/mL Zeocin (Invitrogen Cat. #R250-01). Cells were cryo preserved at a concentration of 2×10^7 cells/mL, in 90% Charcoal/Dextran FBS and 10% DMSO, and frozen in liquid nitrogen at a low passage number.
For the pERK assay, 2×10^7 cells/mL cryopreserved human and mouse cells were thawed rapidly in a 37° C. water bath and added to a T-225 flask containing 50 mL growth medium. The flasks were placed in a tissue culture incubator overnight (37° C., 5% CO2). The next day, cells were harvested with trypsin (Gibco Cat. #25300-054), resuspended in serum-containing growth medium and counted using a Cellometer and volume adjusted to a concentration of 0.6×10^6cells/mL. Cells were plated into 384-well clear bottom tissue culture plates (BD Cat. #353962) at 50 μL/well, for a density of 30,000 cells/well using a MULTIDROP® and incubated for 16-18 hours (overnight) at 37° C. with 5% CO2. The next day, cells were serum starved in 30 μL of F-12 media without any serum or antibiotics for 2 hours at 37° C.
Test compounds were 3-fold, 11-point serially diluted in DMSO in a REMP assay plate (Matrix Cat. #4307) by Tecan and 5 μL was transferred into an ECHO source plate (LABCYTE® Cat. #LC-0200). Cells were then stimulated with 50 nL of compound dilutions using ECHO liquid handler for 7 minutes at 37° C. Compounds ranged from final assay concentrations of 33.33 μM to 0.56 nM.
The media was then dumped and cells lysed with 20 μL of 1× Lysis buffer from the AlphaScreen SureFire Phospho-ERK 1/2 Kit (Perkin Elmer Cat. #6760617M). The lysis buffer was diluted 5-fold with water before use. The plate was agitated on a shaker for 10 minutes after which 2 μL was transferred into a 384-well white proxiplate (Perkin Elmer Cat. #6008289). The SureFire assay reagent mix was prepared by mixing 60 parts Reaction Buffer, 10 parts Activation Buffer, 1 part Donor Beads, 1 part Acceptor Beads (Perkin Elmer Cat. #TGRES10K). 3.5 μL/well of this reagent mix was manually added to the proxiplate with a multichannel pipettor. Plates were spun down at 1000 rpm for 2 minutes, followed by light-protected incubation at room temperature for 2 hours. The plates were read on the Alpha-technology compatible Envision multilabel plate reader using AlphaScreen protocol according to manufacturer's specifications. The agonist effect of compounds was expressed as 100×(average sample−average blank)/(average total−average blank) where sample is the luminescence activity in the presence of test compound, blank is equal to the luminescence activity in the presence of DMSO control and the total is signal induced by 50 μM linolenic acid as reference compound. Activation data for the test compound over a range of concentrations was plotted as percentage activation of the test compound (100%=maximum response). After correcting for background, EC50 values were determined The EC50 is defined as the concentration of test compound which produces 50% of the maximal response and was quantified using the 4 parameter logistic equation to fit the data.
The human and mouse GPR120-mediated intracellular phosphorylated ERK assays were also established using CHO-K1 cells stably transfected with the short form of human or mouse GPR120 receptor. […]
(In general: Bead proximity is the source of the signal in Alpha formats.)

For orientation: EC50 means the midpoint of the concentration-response curve. `N#Cc1cccc(Oc2cccc(C34CCC(CCOCC(=O)O)(CC3)OC4)c2)c1` [Example 107] gave a half-maximal effective concentration (EC50) of 1870 nM. Then `COc1cc(Oc2ccc(C)c(F)c2)cc(C23CCC(CCOCC(=O)O)(CC2)CO3)c1` [Example 93, 2-(2-(1-(3-(3-fluoro-4-methylphenoxy)-5-methoxyphenyl)-2-oxabicyclo[2.2.2]octan-4-yl)ethoxy)acetic acid], with 520 nM; and `O=C(O)COCCC12CCC(c3ccc(F)c(Oc4ccc(F)cc4)c3)(CC1)OC2` [Example 88, 2-(2-(1-(4-fluoro-3-(4-fluorophenoxy)phenyl)-2-oxabicyclo[2.2.2]octan-4-yl)ethoxy)acetic acid], with 340 nM; and `Cc1ccc(Oc2cc(F)cc(C34CCC(CCOCC(=O)O)(CC3)OC4)c2)cc1F` [Example 108, 2-(2-(4-(3-Fluoro-5-(3-fluoro-4-methylphenoxy)phenyl)-2-oxabicyclo[2.2.2]octan-1-yl)ethoxy)acetic acid], with 730 nM. `Cc1ccc(Oc2cc(C34CCC(CCOCC(=O)O)(CC3)CO4)ccc2F)cc1F` [Example 89, 2-(2-(1-(4-fluoro-3-(3-fluoro-4-methylphenoxy)phenyl)-2-oxabicyclo [2.2.2]octan-4-yl)ethoxy) acetic acid]: a half-maximal effect (EC50) was put at 350 nM. This EC50 is about 2.1-fold lower than that of the compound before. Regarding `O=C(NCc1ncn[nH]1)[C@@H]1C[C@H]1CCC12CCC(c3cccc(Oc4ccccc4)c3)(CC1)OC2` (single isomer, unassigned) [Example 62, N-((1H-1,2,4-Triazol-5-yl)methyl)-2-(2-(1-(3-phenoxyphenyl)-2-oxabicyclo[2.2.2]octan-4-yl)ethyl) cyclopropanecarboxamide], the EC50 amounted to 1220 nM. This EC50 lies about 3.5-fold higher than the previous one. Then `O=C(NCc1ncn[nH]1)[C@H]1C[C@@H]1CCC12CCC(c3cccc(Oc4ccccc4)c3)(CC1)OC2` (single isomer, unassigned) [Example 68, N-((1H-1,2,4-Triazol-5-yl)methyl)-2-(2-(1-(3-phenoxyphenyl)-2-oxabicyclo[2.2.2]octan-4-yl)ethyl)cyclopropanecarboxamide], with 720 nM.

For the compound `N#Cc1cccc(Oc2cccc(C34CCC(CCOCC(=O)O)(CC3)CO4)c2)c1` [Example 46, 2-(2-(1-(3-(3-Cyanophenoxy)phenyl)-2-oxabicyclo[2.2.2]octan-4-yl)ethoxy)acetic acid], a half-maximal effect (EC50) was put at 2570 nM. In turn, `CC(C)=COc1cccc(C23CCC(CCOCC(=O)O)(CC2)CO3)c1` [Example 20, 2-(2-(1-(3-(2-Methylprop-1-enyloxy)phenyl)-2-oxabicyclo[2.2.2]octan-4-yl)ethoxy)acetic acid] came in with a concentration for a half-maximal effect (EC50) of 650 nM. `Cc1ccc(Oc2cccc(C34CCC(CCOCC(=O)O)(CC3)CO4)c2)cn1` [Example 115, 2-(2-(1-(3-(6-methylpyridin-3-yloxy)phenyl)-2-oxabicyclo[2.2.2]octan-4-yl)ethoxy)acetic acid] registered a 50% effective concentration (EC50) of 5560 nM. For the compound `O=C(O)COCCC12CCC(c3cccc(Cc4ccccc4)c3)(CC1)OC2` [Example 50, 2-(2-(1-(3-Benzylphenyl)-2-oxabicyclo[2.2.2]octan-4-yl)ethoxy)acetic acid], the half-maximal effective concentration (EC50) stood at 1360 nM. For `O=C(O)COCCCC12CCC(c3cccc(Oc4ccccc4)c3)(CC1)OC2` [Example 12, 2-(3-(1-(3-Phenoxyphenyl)-2-oxabicyclo[2.2.2]octan-4-yl)propoxy)acetic acid], the EC50 came to 980 nM. Then `O=C(O)COCCC12CCC(c3cc(F)cc(OCC(F)(F)F)c3)(CC1)OC2` [Example 54, 2-(2-(1-(3-Fluoro-5-(2,2,2-trifluoroethoxy)phenyl)-2-oxabicyclo[2.2.2]octan-4-yl)ethoxy)acetic acid], with 3470 nM; and `OCCCCC12CCC(c3cccc(Oc4ccccc4)c3)(CC1)OC2` [Example 57, 4-(1-(3-Phenoxyphenyl)-2-oxabicyclo[2.2.2]octan-4-yl)butan-1-ol], with 1880 nM; and `O=C(O)COCCC12CCC(c3cccc(Oc4cccc(Cl)c4)c3)(CC1)OC2` [Example 44, 2-(2-(1-(3-(3-chlorophenoxy)phenyl)-2-oxabicyclo[2.2.2]octan-4-yl)ethoxy) acetic acid], with 450 nM.
